Results published in patent US10858335B2 (Rigel Pharmaceuticals, Inc., priority 2014, dated 2020).
pIC50: −log10 of the molar value.

Tested on: GDF8 signaling (p-SMAD-3 (Ser423/425))
Experiment: AlphaScreen SureFire SMAD3 (p-Ser423/425) assay, GDF8-stimulated cells (GDF pSMAD)
Assay type: cell-based
Settings: Mus musculus, MPC-11, GDF8-stimulated pSMAD3, MPC11; tested as the salt form given; read-out: GDF pSMAD (MPC11) (μM), inhibition of GDF8 signaling

Row | IC50 [µM] | SMILES
1 | 4.77 | Nc1ncnc2ccc(-c3cccnc3-c3cc(O)c(F)cc3Cl)cc12 [compound 1020, 5-(3-(4-aminoquinazolin-6-yl)pyridin-2-yl)-4-chloro-2-fluorophenol]
2 | 0.129 | Fc1cc(F)c(F)c(-c2ncccc2-c2ccc3ncsc3c2)c1 [compound 1055]

Same assay, conditions: Mus musculus, MPC-11, MPC11; GDF8-stimulated; p-SMAD3 AlphaScreen; read-out: GDF pSMAD (MPC11) (inhibition of GDF8 signaling)

Row | pIC50 | SMILES
3 | 6.71 | Cc1cc(-c2ncc(NCc3ccc(O)c(F)c3)cc2-c2ccc3ncsc3c2)ccc1F [compound 369, 4-(((5-(Benzo[d]thiazol-6-yl)-6-(4-fluoro-3-methylphenyl)pyridin-3-yl)amino)methyl)-2-fluorophenol]
4 | 5.30 | Nc1ncnc2ccc(-c3cccnc3-c3cc(F)ccc3Cl)cc12 [compound 504, 6-(2-(2-Chloro-5-fluorophenyl)pyridin-3-yl)quinazolin-4-amine]
5 | 6.21 | FC(F)Oc1cccc(-c2ncccc2-c2ccc3nccnc3c2)c1 [compound 962, 6-(2-(3-(Difluoromethoxy)phenyl)pyridin-3-yl)quinoxaline]
6 | 5.02 | Fc1ccc(-c2ncccc2-c2ccc3nccnc3n2)cc1Cl [compound 740, 6-(2-(3-Chloro-4-fluorophenyl)pyridin-3-yl)pyrido[2,3-b]pyrazine]
7 | 5.10 | Cc1cc(-c2ncccc2-c2ccc3ncnc(Nc4ccc(C#N)cc4)c3c2)ccc1F [compound 409, 4-((6-(2-(4-Fluoro-3-methylphenyl)pyridin-3-yl)quinazolin-4-yl)amino)benzonitrile]
8 | 6.47 | Cc1cccc(-c2ncccc2-c2ccc3ncc(CO)n3c2)c1 [compound 566, (6-(2-(m-Tolyl)pyridin-3-yl)imidazo[1,2-a]pyridin-3-yl)methanol]

Second part, the compound before the results:

Row | SMILES | pIC50
9 | Cc1cc(-c2ncc(COCC(=O)N(C)C)cc2-c2ccc3nccnc3c2)ccc1F [compound 231, 2-((6-(4-Fluoro-3-methylphenyl)-5-(quinoxalin-6-yl)pyridin-3-yl)methoxy)-N,N-dimethylacetamide] | 4.97
10 | Cc1cccc(-c2ncccc2-c2ccc3ncn(CCCN4CCOCC4)c3c2)c1 [compound 250, 4-(3-(6-(2-m-Tolylpyridin-3-yl)-1H-benzo[d]imidazol-1-yl)propyl)morpholine] | 4.98
11 | CCc1ncc(CNc2cnc(-c3ccc(F)c(C)c3)c(-c3ccc4ncsc4c3)c2)[nH]1 [compound 323, 5-(Benzo[d]thiazol-6-yl)-N-((2-ethyl-1H-imidazol-5-yl)methyl)-6-(4-fluoro-3-methylphenyl)pyridin-3-amine] | 6.49
12 | Clc1cccc(-c2ncccc2-c2ccn3nccc3c2)c1 [compound 759, 5-(2-(3-Chlorophenyl)pyridin-3-yl)pyrazolo[1,5-a]pyridine] | 6.76
13 | Cc1cc(-c2ncc(NCc3cccnc3C)cc2-c2ccc3ncsc3c2)ccc1F [compound 331, 5-(Benzo[d]thiazol-6-yl)-6-(4-fluoro-3-methylphenyl)-N-((2-methylpyridin-3-yl)methyl)pyridin-3-amine] | 5.88
14 | Cc1cc(-c2ncccc2-c2ccc3ncc(C(=O)NC4CCN(C)CC4)n3c2)ccc1F [compound 592, 6-(2-(4-Fluoro-3-methylphenyl)pyridin-3-yl)-N-(1-methylpiperidin-4-yl)imidazo[1,2-a]pyridine-3-carboxamide] | 6.69
15 | Cc1cnc(-c2cccc(C(F)(F)F)c2)c(-c2ccn3ncnc3c2)c1 [compound 867, 7-(2-(3-((Difluoro-13-methyl)-12-fluoranyl)phenyl)-5-methylpyridin-3-yl)-[1,2,4]triazolo[1,5-a]pyridine] | 6.12
16 | Cc1cc(O)cc(-c2ncccc2-c2ccc3ncnc(N)c3c2)c1 [compound 495, 3-(3-(4-Aminoquinazolin-6-yl)pyridin-2-yl)-5-methylphenol] | 6.61
17 | Cc1cc(-c2ncccc2-c2ccc3ncnc(NCC4CCN(C)CC4)c3c2)ccc1F [compound 421, 6-(2-(4-Fluoro-3-methylphenyl)pyridin-3-yl)-N-((1-methylpiperidin-4-yl)methyl)quinazolin-4-amine] | 5.85
